For the assay, the system named is T1, rPsGrx.
T1 construct: gene PsGrx; active site C12-P-F-C15 (abstract prints CPYC)
The experiment in a line: GSH-dependent HED reduction coupled to yeast glutathione reductase, NADPH consumption at […] nm; Lineweaver-Burk. The class given is biochemical, Pseudoalteromonas sp. AN178. Particulars: HED 0.4 to 8 mM, 1 mM GSH fixed, yeast GR, apparent Km, standard assay at 25°C.

For `OCCSSCCO` [HED], the Michaelis-Menten constant (Km) worked out at 460 µM.

Usually Km stands for the concentration of substrate that gives half-maximal velocity.

The record behind these values is publication PMC4109671, “Cloning, Expression, Purification, and Characterization of Glutaredoxin from Antarctic Sea-Ice Bacterium Pseudoalteromonas sp. AN178” (BioMed Research International, 2014).
